Here are results for 33 compounds from patent US5789434A, “Derivatives of substituted 4-biarylbutyric acid as matrix metalloprotease inhibitors” (priority 1995, dated 1998).

One test addresses T1, MMP-3 (Homo sapiens, UniProt P08254).
T1 construct: Truncated Prostromelysin-257 was expressed in a soluble form in E.coli; made in house; host or cells: E. coli
As to the kind of experiment: Primary Thiopeptilide MMP-3 Inhibition Assay. In kind it is biochemical. As to conditions: for inhibition at 5 µM: read-out: MMP-3 Thiopep. % inhibition; for IC50: pH 6.5, 13 nM stromelysin, x (n) = average of n determinations, read-out: MMP-3 Thiopep. IC50.

A further test deals with T2, MMP-9 (Homo sapiens, UniProt P14780).
T2 construct: from tissue; host or cells: human polymorphonuclear leukocytes (PMN) from whole blood (New York Blood Center), PMA-stimulated supernatant
Briefly: Thiopeptilide MMP-9 Inhibition Assay. It counts as biochemical. The note with it: for inhibition at 5 µM: read-out: MMP-9: Thiopep. % inhibition; for IC50: pH 6.5, x (n) = average of n determinations, read-out: MMP-9: Thiopep. IC50.

SMILES strings stand for the structures. Structures can show the parent of a compound that is named as a salt.

T2 sequence (P14780 107-707 limits assumed): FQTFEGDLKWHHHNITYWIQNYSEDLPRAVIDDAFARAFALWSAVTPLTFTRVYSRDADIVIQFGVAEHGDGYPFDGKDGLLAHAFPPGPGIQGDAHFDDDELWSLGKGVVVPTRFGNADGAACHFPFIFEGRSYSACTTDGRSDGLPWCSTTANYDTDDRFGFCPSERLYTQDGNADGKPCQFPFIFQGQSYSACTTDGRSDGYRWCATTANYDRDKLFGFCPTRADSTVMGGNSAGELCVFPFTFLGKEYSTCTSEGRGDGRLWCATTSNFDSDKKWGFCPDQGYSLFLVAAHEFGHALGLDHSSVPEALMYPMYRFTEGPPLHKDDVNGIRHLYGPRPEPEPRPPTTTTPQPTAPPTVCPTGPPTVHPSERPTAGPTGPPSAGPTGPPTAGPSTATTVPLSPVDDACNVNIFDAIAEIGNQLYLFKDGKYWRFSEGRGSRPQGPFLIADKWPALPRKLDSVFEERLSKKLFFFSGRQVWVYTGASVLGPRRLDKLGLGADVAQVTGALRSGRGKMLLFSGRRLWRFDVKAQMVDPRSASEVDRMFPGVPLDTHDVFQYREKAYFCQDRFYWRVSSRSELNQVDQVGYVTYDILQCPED
T1 sequence (P08254 100-274 limits assumed): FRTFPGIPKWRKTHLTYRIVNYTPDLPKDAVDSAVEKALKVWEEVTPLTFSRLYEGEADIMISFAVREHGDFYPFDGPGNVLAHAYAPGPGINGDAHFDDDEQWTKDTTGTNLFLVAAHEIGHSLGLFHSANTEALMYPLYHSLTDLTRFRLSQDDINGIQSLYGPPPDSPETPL
Protocol for MMP-3: Enzyme: recombinant stromelysin expressed in E.coli and purified as described above. […] The protocols for the assay of compounds as stromelysin inhibitors was the same as that used for MMP-9 except that the assay buffer was 50 mM MES, pH 6.5 containing 150 mM NaCl, 10 mM CaCl2, 0.005% Brij, and 1% DMSO.

In the case of `C[C@H](C(=O)c1ccc(-c2ccc(Cl)cc2)cc1)[C@@H](C)C(=O)O` (relative stereo) [Example 284, [1,1'-Biphenyl]-4-butanoic acid, 4'-chloro-α,β-dimethyl-γ-oxo-, (R*,S*)-], the results for the inhibition at 5 µM on MMP-3 (at 5 μM) and at MMP-9 were 10% and 1%, respectively.

For the compound `CC(C)CC(CC(=O)c1ccc(Cl)cc1)C(=O)O` (stereo not drawn) [Example 27, Benzenebutanoic acid, 4-chloro-α-(2-methylpropyl)-γ-oxo-, reference compound], the inhibition at 5 µM was 11% at MMP-3 (at 5 μM) and 15% on MMP-9.

In the case of `N#Cc1ccc(-c2ccc(C(=O)CC(CCc3ccccc3)C(=O)O)cc2)cc1` (stereo not drawn) [Example 125, [1,1'-Biphenyl]-4-butanoic acid, 4'-cyano-γ-oxo-α-(2-phenylethyl)-], the IC50 was determined as 105 nM on MMP-3 and 1800 nM on MMP-9.

For the compound `CC(C)(C)C(=O)SCC(CC(=O)O)C(=O)c1ccc(-c2ccc(Cl)cc2)cc1` (stereo not drawn) [Example 256, [1,1'-Biphenyl]-4-butanoic acid, 4'-chloro-β-[[(2,2-dimethyl-1-oxopropyl)thio]methyl]-γ-oxo-], the IC50 was determined as 600 nM at MMP-3 and 3000 nM on MMP-9.

In the case of `O=C(CC(CSc1ccccc1CO)C(=O)O)c1ccc(-c2ccc(Cl)cc2)cc1` (stereo not drawn) [Example 217, [1,1'-Biphenyl]-4-butanoic acid, 4'-chloro-α-[[[2-(hydroxymethyl)phenyl]thio]methyl]-γ-oxo-], the IC50 on MMP-3 was found to be 83 nM; on MMP-9, 245 nM.

As to `CCCCC(CC(=O)c1ccc(-c2ccc(Cl)cc2)cc1)C(=O)O` (stereo not drawn) [Example 120, [1,1'-Biphenyl]-4-butanoic acid, α-butyl-4'-chloro-γ-oxo-], the IC50 on MMP-3 is 380 nM. For the same compound, the inhibition at 5 µM at MMP-9 turned out to be 60%.

As to `Cc1nc(-c2ccc(C(=O)CC(CC(C)C)C(=O)O)cc2)cs1` (stereo not drawn) [Example 348, Benzenebutanoic acid, α-(2-methylpropyl)-4-(2-methyl-4-thiazolyl)γ-oxo-], the inhibition at 5 µM on MMP-3 (at 5 μM) worked out at 31%; on MMP-9, 36%.

Consider `CC(=O)Nc1ccc(SCC(CC(=O)c2ccc(-c3ccc(Cl)cc3)cc2)C(=O)O)cc1` (stereo not drawn) [Example 223, [1,1'-Biphenyl]-4-butanoic acid, α-[[[4-(acetylamino)phenyl]thio]methyl]-4'-chloro-γ-oxo-], for which the IC50 at MMP-3 was 930 nM; at MMP-9, 580 nM.

Consider `CSc1ccc(-c2ccc(C(=O)CC(CCCc3ccccc3)C(=O)O)cc2)cc1` (stereo not drawn) [Example 51, [1,1'-Biphenyl]-4-butanoic acid, 4'-(methylthio)-γ-oxo-α-(3-phenylpropyl)-], for which the IC50 at MMP-3 was 170 nM; at MMP-9, 100 nM.

Regarding `O=C(CC(CCCc1ccccc1)C(=O)O)c1ccc(-c2cccc(C(F)(F)F)c2)cc1` (stereo not drawn) [Example 81, [1,1'-Biphenyl]-4-butanoic acid, γ-oxo-α-(3-phenylpropyl)-3'-(trifluoromethyl)-], the inhibition at 5 µM worked out at 30% at MMP-3 (at 5 μM) and 12% on MMP-9.

Regarding `O=C(CC(CSc1ccc(Br)cc1)C(=O)O)c1ccc(-c2ccc(Cl)cc2)cc1` (stereo not drawn) [Example 210, [1,1'-Biphenyl]-4-butanoic acid, α-[[(4-bromophenyl)thio]methyl]-4'-chloroγ-oxo-], the results for the IC50 on MMP-3 and at MMP-9 were 500 nM and 205 nM, respectively.

Consider `O=C(CC(C/C=C/c1ccccc1)C(=O)O)c1ccc(-c2ccc(Cl)cc2)cc1` (stereo not drawn) [Example 183, [1,1'-Biphenyl]-4-butanoic acid, 4'-chloro-γ-oxo-α-(3-phenyl-2-propenyl)-, (E)-], for which the IC50 on MMP-3 came to 270 nM; at MMP-9 it was 710 nM.

Take `O=C(O)C1C2C=CC(CC2)C1C(=O)c1ccc(-c2ccc(Cl)cc2)cc1` (stereo not drawn) [Example 330]: the values for the inhibition at 5 µM on MMP-3 (at 5 μM) and at MMP-9 were 9% and 16%, respectively.

Regarding `CC(=O)SCC(CC(=O)c1ccc(C)cc1)C(=O)O` (stereo not drawn) [Example 253, Benzenebutanoic acid, α-[(acetylthio)methyl]-4-methyl-γ-oxo-, reference compound], the inhibition at 5 µM was 0% on MMP-3 (at 5 μM) and 21% on MMP-9.

Turning to `O=C(CC(CSC1CCCCC1)C(=O)O)c1ccc(-c2ccc(Cl)cc2)cc1` (stereo not drawn) [Example 214, [1,1'-Biphenyl]-4-butanoic acid, 4'-chloro-α-[(cyclohexylthio)methyl]-γ-oxo-], the IC50 on MMP-3 was 170 nM; on MMP-9 it was 2200 nM.

`CCCCCCCOc1ccc(-c2ccc(C(=O)CC(CCCc3ccccc3)C(=O)O)cc2)cc1` (stereo not drawn) [Example 92, [1,1'-Biphenyl]-4-butanoic acid, 4'-(heptyloxy)-γ-oxo-α-(3-phenylpropyl)-]: the inhibition at 5 µM came out at 60% on MMP-3 (at 5 μM) and 26% at MMP-9.

Turning to `O=Cc1ccccc1-c1ccc(C(=O)CC(CCCc2ccccc2)C(=O)O)cc1` (stereo not drawn) [Example 82, [1,1'-Biphenyl]-4-butanoic acid, 2'-formyl-γ-oxo-α-(3-phenylpropyl)-], the inhibition at 5 µM was 23% on MMP-3 (at 5 μM) and 9% at MMP-9.

For `O=C(O)CCC(O)c1ccc(-c2ccccc2F)cc1` (stereo not drawn) [Example 39, [1,1'-Biphenyl]-4-butanoic acid, 2'-fluoro-γ-hydroxy-, reference compound], the inhibition at 5 µM on MMP-3 (at 5 μM) amounted to 16%; on MMP-9 it was 4%.

As for `CC(C)CC1CC(c2ccc(-c3ccc(Cl)cc3)cc2)OC1=O` (stereo not drawn) [Example 36, 2(3H)-Furanone, 5-(4'-chloro[1,1'-biphenyl]-4-yl)dihydro-3-(2-methylpropyl)-, reference compound], the “MMP-3 Thiopep. % inhibition” value on MMP-3 (at 5 μM) is reported as 0%. For the same compound, the inhibition at 5 µM at MMP-9 is 0%.

In the case of `C=Cc1ccc(-c2ccc(C(=O)CC(CCCc3ccccc3)C(=O)O)cc2)cc1` (stereo not drawn) [Example 55, [1,1'-Biphenyl]-4-butanoic acid, 4'-ethenyl-γ-oxo-α-(3-phenylpropyl)-], the half-inhibitory concentration (IC50) stood at 170 nM on MMP-3 and 110 nM at MMP-9.

With `N#CCc1ccc(-c2ccc(C(=O)CC(CCCc3ccccc3)C(=O)O)cc2)cc1` (stereo not drawn) [Example 50, [1,1'-Biphenyl]-4-butanoic acid, 4'-(cyanomethyl)γ-oxo-α-(3-phenylpropyl)-], the IC50 on MMP-3 came to 630 nM; at MMP-9, 800 nM.

Take `O=C(CC(CCCc1ccc(Cl)cc1)C(=O)O)c1ccc(-c2ccc(Cl)cc2)cc1` (stereo not drawn) [Example 185, [1,1'-Biphenyl]-4-butanoic acid, 4'-chloro-α[3-(4-chlorophenyl)propyl]-γ-oxo-]: on MMP-3, the IC50 came to 220 nM. Also, the inhibition at 5 µM at MMP-9 is 31%.

Regarding `CN(C)CCC(CC(=O)c1ccc(-c2ccc(Cl)cc2)cc1)C(=O)O` (stereo not drawn) [Example 263, [1,1'-Biphenyl]-4-butanoic acid, 4'-chloro-α-[2-(dimethylamino)ethyl]-γ-oxo-, hydrochloride], the inhibition at 5 µM at MMP-3 (at 5 μM) came to 33%; on MMP-9, 21%.

`O=C(c1ccc(-c2ccc(Cl)cc2)cc1)[C@H]1CC[C@H]1C(=O)O` (relative stereo) [Example 290, Cyclobutanecarboxylic acid, 2-[(4'-chloro[1,1'-biphenyl]-4-yl)carbonyl]-, cis-]: the inhibition at 5 µM on MMP-3 (at 5 μM) turned out to be 35%; at MMP-9 it was 15%.

Turning to `O=C(CC(CCCc1ccccc1)C(=O)O)c1ccc(-c2ccc(OCCCl)cc2)cc1` (stereo not drawn) [Example 52, [1,1'-Biphenyl]-4-butanoic acid, 4'-(2-chloroethoxy)-γ-oxo-α-(3-phenylpropyl)-], the results for the IC50 on MMP-3 and on MMP-9 were 76 nM and 37 nM, respectively.

On to `CNC(=O)c1ccccc1SCC(CC(=O)c1ccc(-c2ccc(Cl)cc2)cc1)C(=O)O` (stereo not drawn) [Example 250, [1,1'-Biphenyl]-4-butanoic acid, 4'-chloro-α-[[[2-[(methylamino)carbonyl]phenyl]thio]methyl]-γ-oxo-], for which the results for the IC50 at MMP-3 and at MMP-9 were 125 nM and 800 nM, respectively.

As to `CCCC(CC(=O)c1ccc(-c2ccc(Cl)cc2)cc1)C(=O)O` (stereo not drawn) [Example 118, [1,1'-Biphenyl]-4-butanoic acid, 4'-chloro-γ-oxo-α-propyl-], the IC50 at MMP-3 came to 440 nM; at MMP-9, 2200 nM.

Regarding `O=C(O)CCC(=O)c1ccc(-c2cccc(Cl)c2)cc1` [Example 12, [1,1'-Biphenyl]-4-butanoic acid, 3'-chloro-γ-oxo-, reference compound], the inhibition at 5 µM came to 17% on MMP-3 (at 5 μM) and 0% at MMP-9.

Turning to `C[C@@H](C(=O)O)[C@@H](C)C(=O)c1ccc(-c2ccc(Cl)cc2)cc1` (relative stereo) [Example 283, [1,1'-Biphenyl]-4-butanoic acid, 4'-chloro-α,β-dimethyl-γ-oxo-, (R*,R*)-], the IC50 turned out to be 2400 nM on MMP-3 and 7000 nM on MMP-9.

On to `O=C(O)CCC(=O)c1ccc(-c2ccccc2F)cc1` [Example 9, [1,1'-Biphenyl]-4-butanoic acid, 2'-fluoro-γ-oxo-, reference compound], for which the inhibition at 5 µM at MMP-3 (at 5 μM) was 0%; at MMP-9 it was 3%.

As to `CC(C)CC(CC(=O)c1ccc(-c2ccc(F)cc2F)cc1)C(=O)O` (stereo not drawn) [Example 20, [1,1'-Biphenyl]-4-butanoic acid, 2',4'-difluoro-α-(2-methylpropyl)-γ-oxo-], the inhibition at 5 µM was found to be 32% on MMP-3 (at 5 μM) and 34% at MMP-9.

As for `O=C(O)[C@H]1C2CCC(CC2)[C@@H]1C(=O)c1ccc(-c2ccc(Cl)cc2)cc1` (relative stereo) [Example 331, Bicyclo[2.2.2]octane-2-carboxylic acid, 3-[(4'-chloro[1,1'-biphenyl]-4-yl)carbonyl]-, trans-], the inhibition at 5 µM on MMP-3 (at 5 μM) worked out at 15%; at MMP-9 it was 18%.

For the compound `C=C(CC(=O)c1ccc(C)cc1)C(=O)O` [Example 28, Benzenebutanoic acid, 4-methyl-α-methylene-γ-oxo-, reference compound], the inhibition at 5 µM on MMP-3 (at 5 μM) is 14%; at MMP-9, 0%.
